Measurements as given in EP0326329B1, “Quinazoline derivatives useful as insecticides” (Dow AgroSciences LLC, priority 1988, dated 1989).

Columns and labels:
Assay type in all cases: in vivo
[1] = system: melon aphids (Aphis gossypii Glover); test: Mite/insect screen, sprayed squash cotyledons (MA); details: percent mortality; for mortality at 200 ppm / mortality at 400 ppm: Aphis gossypii, read-out: MA RESULTS %; for mortality at 200 ppm: spray rate 200 ppm
How it was run: (§1)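 Mortality and phytotoxicity read after standard exposure periods on sprayed squash: cotyledons for melon aphids and twospotted spider mites, excised leaves placed with southern armyworm larvae. Spray solutions were water dilutions of acetone/alcohol stocks containing TOXIMUL R and S emulsifiers, applied to runoff at 10 psi and air-dried one hour.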

[2] = system: Botrytis cinerea (gray mold); test: Greenhouse Test 1, foliar spray fungicide screen (GRAY MOLD), host grape berries; details: disease control rating, 400 ppm (+++ at 100 ppm)
[3] = system: Pyricularia oryzae (rice blast); details: disease control rating, foliar spray, host rice; 400 ppm (+++ at 100 ppm)
[4] = system: Cercospora beticola (leaf spot); test: Greenhouse Test 1, foliar spray fungicide screen (LEAF SPOT), host sugar beet; details: disease control rating, 400 ppm (+++ at 100 ppm)
[5] = system: Pseudoperonospora cubensis (downy mildew); test: Greenhouse Test 1, foliar spray fungicide screen (DOWN MDEW), host squash; details: disease control rating, 400 ppm (+++ at 100 ppm)
[6] = system: southern armyworm (Spodopetra eridania Cramer); test: Mite/insect screen, sprayed squash leaves (SAW); details: percent mortality; for mortality at 200 ppm / mortality at 400 ppm: Spodoptera eridania, read-out: SAW RESULTS %; for mortality at 200 ppm: spray rate 200 ppm
How it was run: as §1

[7] = system: Puccinia recondita tritici (leaf rust); test: Greenhouse Test 1, foliar spray fungicide screen (LEAF RUST), host wheat; details: disease control rating, 400 ppm (+++ at 100 ppm)
[8] = system: Septoria tritici (leaf blotch); test: Greenhouse Test 1, foliar spray fungicide screen (LEAF BLOT), host wheat; details: disease control rating, 400 ppm (+++ at 100 ppm)
[9] = system: Erysiphe graminis tritici (powdery mildew); test: Greenhouse Test 1, foliar spray fungicide screen (POWD MDEW), host wheat; details: disease control rating, 400 ppm (+++ at 100 ppm)
[10] = system: Twospotted spider mites (Tetranychus urticae Koch); test: Mite/insect screen, sprayed squash cotyledons (SM); details: percent mortality; for mortality at 200 ppm / mortality at 400 ppm: Tetranychus urticae, read-out: SM RESULTS %; for mortality at 200 ppm: spray rate 200 ppm
How it was run: as §1

[11] = system: Venturia inaequalis (apple scab); test: Greenhouse Test 1, foliar spray fungicide screen (APPL SCAB), host apple seedling; details: disease control rating, 400 ppm (+++ at 100 ppm)
[12] = system: Southern corn rootworm (Diabrotica undecimpuctata howardi Barber); test: Mite/insect screen, soil treatment (CRW); details: percent mortality, soil treatment; for mortality at 12 ppm / mortality at 24 ppm: Diabrotica, read-out: CRW RESULTS %; for mortality at 12 ppm: CRW rate 12.00 ppm
How it was run: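 Five 2–3 instar larvae were placed on dry sandy soil with a presoaked corn seed after the soil had received 1 mL of compound solution and dried 6–12 h; cups were kept capped at 23°C. Mortality (%) and phytotoxicity were read after standard exposure. Formulation: acetone/alcohol with emulsifiers, water-diluted.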

Structure (SMILES)	mortality at 200 ppm [1] [%]	mortality at 400 ppm ([1]; spray rate 400 ppm) [%]	GRAY MOLD [2]	RICE BLAST [3]	LEAF SPOT [4]	DOWN MDEW [5]	mortality at 200 ppm [6] [%]	mortality at 400 ppm ([6]; spray rate 400 ppm) [%]	LEAF RUST [7]	LEAF BLOT [8]	POWD MDEW [9]	mortality at 200 ppm [10] [%]	mortality at 400 ppm ([10]; spray rate 400 ppm) [%]	APPL SCAB [11]	mortality at 12 ppm [12] [%]	mortality at 24 ppm ([12]; CRW rate 24.00 ppm) [%]	MA RESULTS % ([1]; spray rate 400 ppm) [%]	SAW RESULTS % ([6]; spray rate 400 ppm) [%]	SM RESULTS % ([10]; spray rate 400 ppm) [%]	CRW RESULTS % ([12]; CRW rate 24.00 ppm) [%]
c1ccc(Oc2cccc(CCNc3ncnc4ccccc34)c2)cc1 [Example 38, N-[2-(3-phenoxyphenyl)ethyl]-4-quinazolinamine]	0	80	- (- = 0-19% control at 400 ppm)	+++ (+++ = 90-100% control at 100 ppm)	+ (+ = 20-89% control at 400 ppm)	+++ (+++ = 90-100% control at 100 ppm)	40	40	+++ (+++ = 90-100% control at 100 ppm)	++ (++ = 90-100% control at 400 ppm)	++ (++ = 90-100% control at 400 ppm)	0	90	+ (+ = 20-89% control at 400 ppm)	0	100	–	–	–	–
c1csc(CCOc2ncnc3ccccc23)c1 [Example 54, 4-[2-(2-thienyl)ethoxy]quinazoline]	0	–	- (- = 0-19% control at 400 ppm)	++ (++ = 90-100% control at 400 ppm)	+ (+ = 20-89% control at 400 ppm)	++ (++ = 90-100% control at 400 ppm)	0	–	++ (++ = 90-100% control at 400 ppm)	+ (+ = 20-89% control at 400 ppm)	++ (++ = 90-100% control at 400 ppm)	0	–	+ (+ = 20-89% control at 400 ppm)	0	–	–	–	–	–
c1ccc(CCCNc2nc(NCCCc3ccccc3)c3ccccc3n2)cc1 [Example 24, N,N'-bis(3-phenylpropyl)-2,4-quinazolinediamine]	0	–	- (- = 0-19% control at 400 ppm)	+ (+ = 20-89% control at 400 ppm)	- (- = 0-19% control at 400 ppm)	+++ (+++ = 90-100% control at 100 ppm)	0	–	+ (+ = 20-89% control at 400 ppm)	- (- = 0-19% control at 400 ppm)	+ (+ = 20-89% control at 400 ppm)	0	–	- (- = 0-19% control at 400 ppm)	0	–	–	–	–	–
COc1ccccc1CCNc1nc(NCCc2ccccc2OC)c2ccccc2n1 [Example 25, N,N'-bis[2-(2-methoxyphenyl)ethyl]-2,4-quinazolinediamine]	0	–	–	+ (+ = 20-89% control at 400 ppm)	- (- = 0-19% control at 400 ppm)	++ (++ = 90-100% control at 400 ppm)	0	–	+ (+ = 20-89% control at 400 ppm)	- (- = 0-19% control at 400 ppm)	- (- = 0-19% control at 400 ppm)	0	–	- (- = 0-19% control at 400 ppm)	0	–	–	–	–	–
CC(C)c1ccccc1CCOc1ncnc2c(F)cccc12 [Example 195, 8-fluoro-4-[2-[2-(i-propyl)phenyl]ethoxy]quinazoline]	80	0	- (- = 0-19% control at 400 ppm)	+++ (+++ = 90-100% control at 100 ppm)	–	++ (++ = 90-100% control at 400 ppm)	0	0	+++ (+++ = 90-100% control at 100 ppm)	–	+++ (+++ = 90-100% control at 100 ppm)	0	0	–	0	0	–	–	–	–
Fc1ccccc1Oc1ccc(CCOc2ncnc3ccccc23)cc1 [Example 162, 4-(2-[4-(2-fluorophenoxy)phenyl]ethoxy]quinazoline]	80	80	- (- = 0-19% control at 400 ppm)	+++ (+++ = 90-100% control at 100 ppm)	–	+++ (+++ = 90-100% control at 100 ppm)	60	0	+++ (+++ = 90-100% control at 100 ppm)	–	+++ (+++ = 90-100% control at 100 ppm)	100	100	–	0	100	–	–	–	–
CC(C)c1cccc(C(C)C)c1OCCOc1ncnc2ccccc12 [Example 181, 4-[2-[2,6-bis(i-propyl)phenoxy]ethoxy]quinazoline]	60	50	- (- = 0-19% control at 400 ppm)	+ (+ = 20-89% control at 400 ppm)	–	+ (+ = 20-89% control at 400 ppm)	0	0	- (- = 0-19% control at 400 ppm)	–	++ (++ = 90-100% control at 400 ppm)	0	40	–	0	0	–	–	–	–
CC(C)(C)c1ccc(CCOc2ncnc3ccc(Br)cc23)cc1 [Example 175, 6-bromo-4-[2-[4-(t-butyl)phenyl]ethoxy]quinazoline]	80	0	- (- = 0-19% control at 400 ppm)	++ (++ = 90-100% control at 400 ppm)	–	- (- = 0-19% control at 400 ppm)	100	0	+ (+ = 20-89% control at 400 ppm)	–	- (- = 0-19% control at 400 ppm)	60	0	–	0	0	0	0	0	0
Fc1cccc2c(OCCc3ccc(Oc4ccccc4)cc3)ncnc12 [Example 10, 8-fluoro-4-[2-(4-phenoxyphenyl)ethoxy]quinazoline]	–	0	- (- = 0-19% control at 400 ppm)	+++ (+++ = 90-100% control at 100 ppm)	–	+++ (+++ = 90-100% control at 100 ppm)	–	100	+++ (+++ = 90-100% control at 100 ppm)	–	+++ (+++ = 90-100% control at 100 ppm)	–	0	–	–	0	–	–	–	–
Cc1cc(C)c(CCOc2ncnc3ccccc23)c(C)c1 [Example 43, 4-[2-(2,4,6-trimethylphenyl)ethoxy]quinazoline]	–	0	- (- = 0-19% control at 400 ppm)	++ (++ = 90-100% control at 400 ppm)	–	++ (++ = 90-100% control at 400 ppm)	–	0	++ (++ = 90-100% control at 400 ppm)	–	++ (++ = 90-100% control at 400 ppm)	–	0	–	–	0	–	–	–	–
